Laboratory results reported in EP1344776A1, “5- 2-hydroxy-3-[1-(3-trifluoromethylphenyl)-cyclopropyl]-propionylamino -phtalide and 6- 2-hydroxy-3-[1-(3-trifluoromethylphenyl)-cyclopropyl]-propionylamino -4-methyl-2,3-benzoxazin-1-one derivatives with progesterone receptor modulating activity for use in fertility control, hormone replacement …” (Schering Aktiengesellschaft, priority 2002, dated 2003).
Where two headings read alike, the source gives them in different places.

Legend:
[1] = system: hPR-B; assay: PR-B transcription assay (MTV-LUC reporter, SK-N-MC cells); type: cell-based, human; conditions: 10^-7 mol/l test compound relative to R5020 10^-7 mol/l, 24 hours, 0.1 µM
Experimental: (§1) The method for screening for PR isoform-specific progestins according to the present invention is carried out with first and second SK-N-MC cells stably transfected with a plasmid expressing the hPR-A (first cells) or the hPR-B (second cells) and the LUC reporter gene linked to the hormonally responsive MTV promoter.
The cells are cultured in Minimum Essential Medium with Earl's Salts (S-MEM, without L-glutamine; Gibco BRL, no. 21090-022), supplemented with 10 % fetal calf serum (FCS), penicillin 100U/streptomycin 100 µg/ml (Biochrom, no. A2213), L-glutamine 4 mmol/l (Gibco BRL, no. 25030-024), sodium pyruvate 1 mmol/l (Biochrom, no. L0473) and 1x non-essential amino acids (Biochrom, no. K0293) at a temperature of 37 °C and in an atmosphere of 5 % carbon dioxide.
(§2) For the transcription assay, the cells are seeded onto 96-well dishes (2x 10^4 cells/dish) and cultured in a medium as described above, with the exception that the FCS is replaced by a 3 % charcoal stripped FCS. 48 hours later, cells are contacted with prediluted test compounds. For determination of agonistic activity, cells are cultured in the presence of increasing concentrations (10^-6 to 10^-11 mol/l) of test progestins. As a positive control for reporter gene induction cells are treated with 10^-6 to 10^-11 mol/l R5020 (promegestone). As a negative control for reporter gene induction, cells are cultured in 1 % ethanol.
After incubation with test progestins for 24 hours, the medium is removed and cells are lysed with 20 µl of lysis buffer (Luciferase Assay System E 153A; Promega) and under agitation of the plate for 10 min. After addition of 30 µl of luciferase reagent (Luciferase Assay System E 151A + 152A; Promega) within 30 seconds per plate, the activity of the luciferase reporter gene product is determined in the cell lysates by means of a Microlite ML 3000 microtiter plate luminometer (Dynatech) in cycle mode.
(§3) Evaluation of the response gives the efficacy [%], and evaluation of the EC50 values gives the potency [nM]. Calculation of the agonistic activity is conducted as follows:
(§4) The LUC activity [%] for the measured data points is calculated as follows: relative LUC activity [%] = 100 x((response 10)^-6 (to 10)^-11 mol/l test compound - CO)/(CI - CO) [formula] wherein CI = 100 % stimulation (R5020, 10^-7 mol/l) and CO = 0 % stimulation (ethanol, 1 %).
(§5) Thus, the efficacy [%] is calculated according to: efficacy [%] = 100 x((response 10)^-7 mol/l test compound - CO)/(CI - CO) [formula]
(§6) The potency [nM], i.e. the EC50, is determined graphically.

[2] = system: female rats; assay: Ovulation inhibition test in rat; type: in vivo
Experimental: Before the treatment is started, two […] cycles of female rats (weight: 190 to 210 g) were monitored. Only animals having a regular 4 day-cycle are used for the subsequent test. Starting in the metoestrus, the test compound is administered for 4 days (day 1 to 4) and the cycle is controlled thereafter.
For subcutaneous application, the test compounds are dissolved in benzyl benzoate/castor oil (1+9 v/v) and the daily dose is administered in a volume of 1 ml/kg body weight.
For peroral application, the test compounds are suspended in a carrier liquid (85 mg Myrj^R in 100 ml 0.9 % w/v NaCl solution) and the daily dose is administered in a volume of 2 ml/kg body weight.
On day 4, after the application of the test compound, those animals having estrus or metoestrus are ovariectomized under ether anesthesia on one side. Preparations of the tubes are prepared and they are investigated for ova by means of microscope. On day 5 all animals (intact and partly ovariectomized) are killed with carbon dioxide, the tubes are preserved and analyzed in the same way. It is then determined, as a percentage, in how many animals ovulation was inhibited.

[3] = target: T1, estrogen receptor-α (ERα) (Homo sapiens, UniProt P03372); assay: Estrogen receptor-α binding; conditions: in vitro
T1 sequence (P03372 1-595): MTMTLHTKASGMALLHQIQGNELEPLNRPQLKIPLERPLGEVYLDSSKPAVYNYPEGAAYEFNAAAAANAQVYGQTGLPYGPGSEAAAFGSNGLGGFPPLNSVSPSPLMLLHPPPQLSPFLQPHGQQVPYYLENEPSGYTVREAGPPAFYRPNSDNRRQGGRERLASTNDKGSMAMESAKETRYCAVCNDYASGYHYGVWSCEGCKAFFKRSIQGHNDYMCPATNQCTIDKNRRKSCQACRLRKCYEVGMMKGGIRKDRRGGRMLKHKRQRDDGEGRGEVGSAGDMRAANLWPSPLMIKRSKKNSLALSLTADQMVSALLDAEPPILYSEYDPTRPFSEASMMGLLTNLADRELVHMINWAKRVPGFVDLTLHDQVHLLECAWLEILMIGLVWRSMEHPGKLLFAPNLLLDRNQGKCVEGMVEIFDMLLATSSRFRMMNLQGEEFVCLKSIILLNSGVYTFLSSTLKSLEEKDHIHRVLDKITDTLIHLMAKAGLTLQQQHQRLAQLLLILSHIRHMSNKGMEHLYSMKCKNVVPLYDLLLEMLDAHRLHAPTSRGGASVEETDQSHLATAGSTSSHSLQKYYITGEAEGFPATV

[4] = system: hPR-A; assay: PR-A transcription assay (MTV-LUC reporter, SK-N-MC cells); type: cell-based, human; conditions: 10^-7 mol/l test compound relative to R5020 10^-7 mol/l, 24 hours, 0.1 µM
Experimental: as §1, §2, §3, §4, §5, §6

- affinity for the estrogen receptor-α (ERα) [3]: negligible
Structure (SMILES): O=C1OCc2cc(NC(=O)C(O)(CC3(c4cc(C(F)(F)F)ccc4F)CC3)C(F)(F)F)ccc21 (single isomer, unassigned; (+)) [((+)-1), (+)-5-{2-hydroxy-3-[1-(2-fluoro-5-trifluoromethylphenyl)-cyclopropyl]-2-trifluoromethyl-propionylamino}-phthalide]
- PR-B agonism efficacy [1]: 25%
- ED50 ([2]; Rattus norvegicus, ovulation inhibition, adult female rats (Table 1-a), read-out: ED50): 0.045 mg/kg
- % Inhibition ([2]; ovulation inhibition, rat, dose 10 µg/kg, days 1 to 4): 0%
- ED50 ([2]; rat (Table 1-b), read-out: Ovulation Inhibition (rat) [ED50]): 0.04 mg/kg
- PR-A agonism efficacy [4]: 88.7%
